From US20250381165A1, “Method of Use for Benzofuran Compounds” (Tampa Bay Research Institute, Inc., priority 2024, published 2025)

Columns and labels:
[1] = tested on: CD45+/MHC II/CD11c+ splenocytes; assay: In vivo SIINFEKL loading, flow cytometry of splenocytes; parameters: species or system C57BL/6NCrl mice; settings: CD45+/MHC II/CD11c+ population
Protocol: Since the oral route of drug delivery is preferred, various doses of BzFβ (1, 2, 4 mg) were administered by oral gavage, immediately following an iv injection of 50 μg SIINFEKL peptide. One-hour post-treatment the blood and spleens from each mouse was collected. Blood samples were processed as described above. Spleens were collected in 4 mL of Hanks Balanced Salt Solution (HBSS) and converted to a single cell suspension using sterile pouches and a Steward Stomacher 80 Biomaster Blender (Fisher Scientific, cat. no. 14-285-27). The resulting cell suspension was pelleted and suspended in 4 mL freshly prepared red blood cell lysis buffer (150 mM NH4Cl, 10 mM NaHCO3, 0.1 mM EDTA in sterile distilled H2O) for 1-3 minutes. The splenocytes were pelleted and filtered through […] EASY strainer filters (USA Scientific, cat. no. 5654-2070). The cell count was determined using the MUSE cell viability kit (MCH600103) and MUSE Cell Analyzer (Luminex Corp, Austin TX).
For peptide loading, splenocytes were prepared to 5×10^5/mL in cRPMI, then 100 μL of cells was added to wells of clear round-bottom 96 well tissue culture plates. […] Cells were gated based on live single-cell populations and positives were assessed using isotype controls and fluor-minus-one analysis when needed. Data were analyzed using the Attune NxT software or FlowJo versions 10.7 and 10.8.

[2] = tested on: B16F10 cells (B3Z activation); assay: B3Z activation by B16F10 (OVA or SIINFEKL); format: cell-based, murine
Protocol: B16F10 were plated at a density of 2.5 or 5×10^4 cells/well (100 μL/well in 96 well plates) and cultured overnight in cDMEM. The cells were washed with DPBS and then treated for 1-24 h with the indicated concentrations of BzFβ or co-treated with the indicated concentrations of BzFβ and 1.0 mg/mL OVA, suspended in complete media. Cells treated with BzFβ only were pulsed with 2 nM SIINFEKL pulsed for 1 h. The cells were then co-cultured with equal number of B3Z cells at 37° C. for 19 h.
In this experiment the activity of the dipeptide, GL, was also examined, as it has been previously reported to function as a peptide exchange factor. (Saini, et al., Dipeptides catalyze rapid peptide exchange on MHC class I molecules. Proc Natl Acad Sci USA. 2015 Jan. 6; 112(1):202-7; Saini, et al., Empty peptide-receptive MHC class I molecules for efficient detection of antigen-specific T cells. Sci Immunol. 2019 Jul. 19; 4(37):eaau9039). B16F10 were plated at a density of 2.5 or 5×10^4 cells/well (100 μL/well in 96 well plates) and cultured overnight in cDMEM. The cells were washed with DPBS and then co-treated for 24 h with 10 mM (1.88 mg/mL) of GL and 1.0 mg/mL OVA or were pulsed with 2 nM SIINFEKL for 1 h following treatment with 10 mM GL in complete media. The cells were then co-cultured with an equal number of B3Z cells at 37° C. for 19 h.

[3] = tested on: B3Z cells; assay: Direct treatment of B3Z cells; format: cell-based, murine; settings: BzFβ alone; data not shown
[4] = tested on: DC2.4 cells (B3Z activation); assay: Cross-presentation of whole OVA by DC2.4 to B3Z; format: cell-based, murine; settings: co-treatment 6 h, 0.5 mg/mL OVA; p<0.001 all doses
Protocol: DC2.4 cells (5×10^5 cells/ml) were seeded at 100 μL/well in 96 well plates and cultured overnight. The cells were washed with DPBS, and co-exposed to 0.5 mg/mL soluble whole OVA, along with increasing concentrations of BzFβ for 6 h, The cells were then co-cultured with equal number of B3Z cells at 37° C. for 19 h.

Question: `O=C(O)/C=C/c1ccc2occc2c1` [BzFβ, (2E)-3-(1-benzofuran-5-yl)prop-2-enoic acid] was tested. Which “cells co-expressing MHCI bound SIINFEKL” value [1] did it give?
Answer: significantly more of these cells

Question: What about the “B3Z activation by B16F10, OVA” value ([2]; co-treatment with 1 mg/mL OVA, GL at 10 mM) of the same compound?
Answer: failed to activate the B3Z cells

Question: What about the “B3Z activation by B16F10, SIINFEKL” value ([2]; pre-treatment, 1 h pulse 2 nM SIINFEKL, BzFβ 25, 50 μg, GL 10 mM) of the same compound?
Answer: significantly activate B3Z

Question: What about the “effect of direct treatment on B3Z viability or activation” value [3] of the same compound?
Answer: no effect on cell viability or cell activation

Question: And the “B3Z response, cross-presentation of OVA” value [4]?
Answer: significantly enhance the B3Z response
